Measurements reported in patent US20230312524A1, “ALPHA1A-ADRENERGIC RECEPTOR AGONISTS AND METHODS OF USE” (CuraSen Therapeutics, Inc., priority 2020, published 2023).
Structures can show the parent of a compound that is named as a salt. Where two headings read alike, the source gives them in different places.

Columns and labels:
[1] = biological target: T1, α1A-ARS (Homo sapiens, UniProt P35348); assay: Calcium flux assay (Calcium 6 dye) in cells expressing an α1-AR; format: cell-based; details: for Emax: read-out: Average Emax
T1 sequence (P35348 1-466): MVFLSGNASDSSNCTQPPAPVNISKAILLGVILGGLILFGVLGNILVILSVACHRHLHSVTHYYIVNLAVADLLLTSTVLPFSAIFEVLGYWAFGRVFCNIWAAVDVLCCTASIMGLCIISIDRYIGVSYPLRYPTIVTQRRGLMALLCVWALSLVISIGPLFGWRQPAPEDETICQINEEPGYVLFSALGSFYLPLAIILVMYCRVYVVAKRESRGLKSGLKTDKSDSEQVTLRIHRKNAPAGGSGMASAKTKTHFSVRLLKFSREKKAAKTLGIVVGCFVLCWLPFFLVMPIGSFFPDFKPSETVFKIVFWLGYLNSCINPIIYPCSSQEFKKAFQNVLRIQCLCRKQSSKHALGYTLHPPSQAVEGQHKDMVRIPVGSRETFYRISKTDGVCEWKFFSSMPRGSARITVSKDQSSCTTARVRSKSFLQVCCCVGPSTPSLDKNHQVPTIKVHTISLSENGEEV
Text: Calcium flux experimental design: alpha-1 adrenergic receptors (α1-ARs) couple to Gq proteins, which results in downstream activation of phospholipase C and release of calcium from intracellular stores. Intracellular calcium increase upon α1-AR activation can be detected by Calcium 6 dye.
Cell preparation: cells expressing an α1-AR were washed in warmed phosphate-buffered saline to remove medium and harvested using versene (Caisson Labs, catalog #EDL01).
Media was removed from cells by tapping plates upside-down on absorbent wipes, followed by 15 second upside-down 50×g centrifugation, again on absorbent wipes. 12 μL cell dye solution was added to cells using a reagent dispenser (Integra viaFILL) and cells were incubated for 90 minutes at 37° C., 5% CO2.
Compound preparation: candidate alpha-adrenergic compounds, dissolved to 10 mM in DMSO, were diluted in_assay buffer (HBSS/H-EPES containing 2 mM CaCl2 and 2 mM probenecid sodium salt). […] On all assay plates, vehicle (DMSO) and positive control (10 μM epinephrine) conditions were included on the plate, as well as a dose-response curve of epinephrine. […] 384 well compound plates were centrifuged briefly at 250×g, sealed (Axygen PCR-SP) and incubated at 37° C. until the 90 minute cell dye incubation was complete.
Calcium 6 stained cells and 384 well compound plates were loaded onto the Flexstation and incubated on the machine for 5 minutes before initiating the assay.
For each assay well, baseline Calcium 6 fluorescence was detected for 18 seconds prior to 12 μL compound addition at 12 μL per second. Changes in Calcium 6 fluorescence were detected for a further 22 seconds, for a total read time of 40 seconds. All detection was performed with medium gain sensitivity, bottom read, with 6 flashes per read.
Data analysis: for calcium flux, analysis of maximum change from baseline over the 40-second read time was determined using Softmax Pro and data was exported as raw text files. Potency estimates (EC50) were derived from dose response curves (maximum change from baseline versus the log concentration of test compound) fit by four-parameter nonlinear regression using Graphpad Prism. Efficacy was determined by comparing the magnitude of the test compound signal window (fitted curve max−min) with the signal window of the full agonist control, epinephrine. […] All experiments were repeated a minimum of three times, with the average (mean) potency and maximum effect relative to the within-plate full agonist dose-response comparator reported.

[2] = biological target: T2, α1A-adrenergic receptor (Homo sapiens, UniProt P35348); details: as compared to noradrenaline; InsPs accumulation assay; Blue et al., Table 1; cited from earlier work
T2 sequence (P35348 1-466): T1 sequence (P35348 1-466)

[3] = biological target: T2, α1A-adrenergic receptor; details: as compared to noradrenaline; FLIPR assay; Blue et al., Table 1; cited from earlier work
[4] = calcium flux, α1A-AR, maximum effect relative to full agonist epinephrine
[5] = calcium flux, α1A-AR, mean of at least three experiments, read-out: Average PEC50

Structure (SMILES)	Emax [1, 4] [%]	EC50 [1, 5] [nM]	Emax [1] [%]	other results
C[C@@H](O)c1cc(Cl)ccc1CC1=NCCN1 [Compound 146]	< 20	> 1000	–	–
C[C@H](F)c1cc(Cl)ccc1CC1=NCCN1 [Compound 147]	–	10 to 977	21 to 60	–
Cc1cc(CC2=NCCN2)cc(OC(F)F)c1 [Compound 148]	–	10 to 977	> 61	–
Cc1c(CC2=NCCN2)ccc(S(=O)(=O)C(F)F)c1Cl [Compound 149]	21 to 60	> 1000	–	–
CCc1c(CC2=NCCN2)ccc(S(=O)(=O)C(F)(F)F)c1Cl [Compound 150]	21 to 60	> 1000	–	–
CC(F)(F)c1cc(OC(F)F)ccc1CC1=NCCN1 [Compound 151]	–	10 to 977	21 to 60	–
Clc1ccc(CC2=NCCN2)cc1 [Compound 152]	–	> 1000	< 20	–
Clc1ccccc1CC1=NCCN1 [Compound 153]	–	10 to 977	< 20	–
FC(F)(F)c1ccccc1CC1=NCCN1 [Compound 154]	–	> 1000	21 to 60	–
Cc1ccccc1CC1=NCCN1 [Compound 155]	–	10 to 977	21 to 60	–
COc1ccccc1CC1=NCCN1 [Compound 156]	–	10 to 977	21 to 60	–
CC(F)(F)c1ccc(CC2=NCCN2)c(Cl)c1 [Compound 157]	–	10 to 977	> 61	–
c1ccc(-c2ncco2)c(CC2=NCCN2)c1 [Compound 158]	21 to 60	10 to 977	–	–
Cc1c(CC2=NCCN2)ccc(S(=O)(=O)C(F)(F)F)c1Cl [Compound 159]	21 to 60	> 1000	–	–
FC(F)Oc1cccc(CC2=NCCN2)c1Cl [Compound 160]	–	10 to 977	> 61	–
FC(F)Oc1ccc(Cl)c(CC2=NCCN2)c1 [Compound 161]	–	10 to 977	> 61	–
CC(F)(F)c1cc(OC(F)(F)F)ccc1CC1=NCCN1 [Compound 162]	21 to 60	> 1000	–	–
C[C@H](O)c1ccc(CC2=NCCN2)c(Cl)c1 [Compound 163]	> 61	10 to 977	–	–
C[C@@H](O)c1ccc(CC2=NCCN2)c(Cl)c1 [Compound 164]	> 61	< 9.77	–	–
Cc1ccc(OC(F)(F)F)cc1CC1=NCCN1 [Compound 165]	–	–	> 61	EC50 [1]: 10 to 977 nM
FC(F)(F)Oc1cccc(CC2=NCCN2)c1Cl [Compound 166]	–	10 to 977	21 to 60	–
FC(F)(F)Oc1ccc(Cl)c(CC2=NCCN2)c1 [Compound 167]	–	10 to 977	> 61	–
Cc1c(OCC2=NCCN2)ccc(Cl)c1NS(C)(=O)=O [RO 115-1240 (dabuzalgron) HCl salt, dabuzalgron]	–	–	–	intrinsic activity [2]: 0.27; intrinsic activity [3]: 0.51
Cc1c(OCC2=NCCN2)ccc(Cl)c1NS(C)(=O)=O [RO 115-1240 (dabuzalgron) free base, dabuzalgron]	–	–	–	intrinsic activity [2]: 0.31
